Source: patent publication US20240383910A1, “SMALL MOLECULE BTK DEGRADERS AND METHODS OF USE THEREOF” (Baylor College of Medicine, priority 2023, published 2024)
One block for each molecule: values may come before it.

Key:
[1] = biological target: T1, BTK (Homo sapiens, UniProt Q06187); assay: TR-FRET saturation binding assay of the BTK tracer
Procedure: To measure the binding affinities between PROTACs and BTK, a time-resolved fluorescence resonance energy transfer (TR-FRET) competition binding assay was developed. A BTK tracer was synthesized by conjugating an ibrutinib-based reversible noncovalent binder with the BODIPY-FL dye (FIG. 1). […] In the presence of the BTK tracer, competition assays were performed to measure the binding affinities between BTK and its inhibitors and PROTACs. […] The very weak BTK binding affinities for PS-RC-1, PS-RC-2, PS-RC-3 and PS-RC-4 explain their minimal BTK degradation effects in cells and further support that the observed growth inhibitory effect of PS-RC-1 in Mino cells is unrelated to the BTK pathway.
Target sequence in this assay (Q06187 whole entry, species assumed): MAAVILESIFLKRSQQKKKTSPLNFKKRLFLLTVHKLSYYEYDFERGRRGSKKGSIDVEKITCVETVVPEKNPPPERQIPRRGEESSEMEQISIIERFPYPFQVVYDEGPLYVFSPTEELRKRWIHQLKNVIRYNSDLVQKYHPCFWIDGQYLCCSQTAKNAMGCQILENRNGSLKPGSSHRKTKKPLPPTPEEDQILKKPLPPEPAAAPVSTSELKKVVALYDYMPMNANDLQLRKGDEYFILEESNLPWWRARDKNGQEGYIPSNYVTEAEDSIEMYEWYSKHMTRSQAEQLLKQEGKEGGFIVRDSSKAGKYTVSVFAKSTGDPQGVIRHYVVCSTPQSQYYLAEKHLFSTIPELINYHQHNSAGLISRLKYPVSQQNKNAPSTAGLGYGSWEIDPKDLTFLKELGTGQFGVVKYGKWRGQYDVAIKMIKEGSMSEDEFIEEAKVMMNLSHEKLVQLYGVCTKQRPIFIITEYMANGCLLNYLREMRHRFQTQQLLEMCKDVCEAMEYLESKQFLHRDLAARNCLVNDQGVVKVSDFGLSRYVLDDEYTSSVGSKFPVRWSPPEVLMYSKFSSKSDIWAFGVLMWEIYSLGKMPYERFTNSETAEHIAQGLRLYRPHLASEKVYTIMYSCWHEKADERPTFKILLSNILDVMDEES

[2] = biological target: T2, GSPT1 (Homo sapiens, UniProt P15170+Q96SW2); assay: Western blotting for GSPT1 in Mino cells; type: cell-based; details: up to 1000 nM, 24 h, Western blot
T2 construct: host or cells: Mino
Procedure: Panel a. […] Panel b. […] Panel c. […] Panel d-e. […] Panel g.
Mino cells were seeded into the wells of six-well plates at the density of 5×10^5 cells per mL in 2 mL of complete RPMI-1640 culture medium. After overnight adaptation, cells were treated with serially diluted compounds (from 1,000-1.6 nM, 5-fold dilution) for 24 hours. After treatment, whole cell lysates for immunoblotting were prepared by pelleting Mino cells at 4° C. and 200×g for 5 minutes. The resulting cell pellets were washed once with ice-cold PBS and lysed in 1×RIPA lysis buffer (Alfa Aesar, Cat. No. J62524) supplemented with protease and phosphatase inhibitor cocktail (Thermo Fisher, Cat. No. 78430). Lysates were centrifuged at 15,000×g for 10 min at 4° C. and protein concentrations were assessed using BCA assay (Pierce, Cat. No. 23225). Same amounts of protein (30 μg) for each sample were loaded onto sodium dodecyl sulfate-polyacrylamide gel, separated by electrophoresis (Bio-Rad) at 120 V for 1.5 h and transferred to PVDF membrane using a Transblot Turbo system (Bio-Rad). […] All Western blots were subsequently processed and quantified with Imager software ImageJ and protein level was normalized to the B-actin loading controls.

[3] = biological target: T3, BTK-nLuc fusion protein (Homo sapiens, UniProt Q06187); assay: BTK-nLuc endpoint degradation assay in HEK-293T cells; type: cell-based; details: HEK-293T cells stably expressing BTK-nLuc, 24 h
T3 construct: Addgene (vector) HsCD00514411; pLenti6.2-ccdB-Nanoluc 87078; host or cells: HEK-293T17
Procedure: (§1) DD-03-171 is a known BTK degrader and used as a positive control. Panel f: HEK-293T cells stably expressing a BTK-nLuc fusion protein were treated with indicated compounds (same as in a-e) for 24 h. The BTK degradation was determined by evaluating luminescence signals of NanoLuc.
(§2) The nanoluc activity was determined using the furimazine substrate (Promega, Cat. No. N1110). Briefly, after 4 h incubation of indicated compounds, cells were directly lysed by addition of 100 μL of nanoluciferase detection solution, containing lysis buffer and furimazine (1/50 dilution). For the 24-hour treatment group, the old medium was replaced with 100 μL fresh opti-MEM, followed by the addition of equal volume of lysis buffer plus furimazine (1/50 dilution).

[4] = biological target: T4, BTK-nLuc fusion protein (Homo sapiens, UniProt Q06187+Q96SW2); assay: as above; type: cell-based; details: HEK-293T cells stably expressing BTK-nLuc, 24 h
T4 construct: Addgene (vector) HsCD00514411; pLenti6.2-ccdB-Nanoluc 87078; host or cells: HEK-293T17
Procedure: as §1, §2

[5] = biological target: T1, BTK; assay: Western blotting for BTK in Mino cells; type: cell-based; set-up: host or cells: Mino; details: 24 h, Western blot
Procedure: Mino cells were seeded into the wells of six-well plates at the density of 5×10^5 cells per mL in 2 mL of complete RPMI-1640 culture medium. After overnight adaptation, cells were treated with serially diluted compounds (from 1,000-1.6 nM, 5-fold dilution) for 24 hours. After treatment, whole cell lysates for immunoblotting were prepared by pelleting Mino cells at 4° C. and 200×g for 5 minutes. The resulting cell pellets were washed once with ice-cold PBS and lysed in 1×RIPA lysis buffer (Alfa Aesar, Cat. No. J62524) supplemented with protease and phosphatase inhibitor cocktail (Thermo Fisher, Cat. No. 78430). Lysates were centrifuged at 15,000×g for 10 min at 4° C. and protein concentrations were assessed using BCA assay (Pierce, Cat. No. 23225). Same amounts of protein (30 μg) for each sample were loaded onto sodium dodecyl sulfate-polyacrylamide gel, separated by electrophoresis (Bio-Rad) at 120 V for 1.5 h and transferred to PVDF membrane using a Transblot Turbo system (Bio-Rad). After blocking for 1 h at room temperature in 1% BSA-TBST, the membranes were immunoblotted with the specified primary antibodies at the dilution of 1:1000 in TBST (Cell Signaling Technology: anti-BTK Cat. No. 8547, anti-IKZF1 Cat. No. 14859, anti-IKZF3 Cat. No. 15103, anti-β-actin Cat. No. 4570, Proteintech: anti-GSPT1, Cat. No. 10763-1-AP) overnight at 4° C. and the HRP-conjugated secondary antibodies (Cell Signaling, Cat. No. 7074, 1:1000 in TBST) for 1 h at room temperature. Imaging was performed using the ECL Prime chemiluminescent Western blot detection reagents (Kindle Biosciences, Cat. No. R1100) by visualization of the blots with an Imager (Kindle Biosciences, Cat. No. D1001). All Western blots were subsequently processed and quantified with Imager software ImageJ and protein level was normalized to the B-actin loading controls.
Target sequence in this assay (Q06187 whole entry): as the sequence (Q06187 whole entry, species assumed) above

[6] = biological target: T1, BTK; assay: BTK ligand competition assay in Ramos cells (Western blotting for BTK); type: cell-based; set-up: host or cells: Ramos; details: co-treated with 100 nM PS-2, 24 hours, PS2W at 50 μM
Target sequence in this assay (Q06187 whole entry): as the sequence (Q06187 whole entry, species assumed) above

T2 sequence (P15170 whole entry): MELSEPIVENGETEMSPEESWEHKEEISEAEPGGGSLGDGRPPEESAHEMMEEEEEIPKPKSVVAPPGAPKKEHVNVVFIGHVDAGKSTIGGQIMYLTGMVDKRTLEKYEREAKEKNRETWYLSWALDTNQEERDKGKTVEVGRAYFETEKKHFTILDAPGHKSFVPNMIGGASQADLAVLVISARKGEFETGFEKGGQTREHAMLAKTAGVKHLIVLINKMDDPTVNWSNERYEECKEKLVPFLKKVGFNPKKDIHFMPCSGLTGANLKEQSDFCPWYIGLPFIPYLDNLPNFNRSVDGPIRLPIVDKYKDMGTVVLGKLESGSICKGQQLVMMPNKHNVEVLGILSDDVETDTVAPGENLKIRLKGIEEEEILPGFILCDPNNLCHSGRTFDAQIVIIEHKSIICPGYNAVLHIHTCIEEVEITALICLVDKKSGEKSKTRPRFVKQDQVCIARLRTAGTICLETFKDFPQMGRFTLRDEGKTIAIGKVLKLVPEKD
T2 sequence (Q96SW2 whole entry): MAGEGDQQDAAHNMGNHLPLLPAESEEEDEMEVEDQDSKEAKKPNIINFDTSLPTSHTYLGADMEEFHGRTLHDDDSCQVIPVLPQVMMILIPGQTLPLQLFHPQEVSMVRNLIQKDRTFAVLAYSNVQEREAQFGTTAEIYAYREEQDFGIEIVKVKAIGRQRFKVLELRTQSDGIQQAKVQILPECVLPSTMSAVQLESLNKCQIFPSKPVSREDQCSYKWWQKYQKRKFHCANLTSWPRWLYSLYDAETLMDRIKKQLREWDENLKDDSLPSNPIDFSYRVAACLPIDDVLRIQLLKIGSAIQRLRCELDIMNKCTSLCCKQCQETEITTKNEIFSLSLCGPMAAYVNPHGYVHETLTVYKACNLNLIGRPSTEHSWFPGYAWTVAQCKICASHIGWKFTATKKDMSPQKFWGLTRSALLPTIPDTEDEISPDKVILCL
T2 sequence (Q16531 whole entry partner): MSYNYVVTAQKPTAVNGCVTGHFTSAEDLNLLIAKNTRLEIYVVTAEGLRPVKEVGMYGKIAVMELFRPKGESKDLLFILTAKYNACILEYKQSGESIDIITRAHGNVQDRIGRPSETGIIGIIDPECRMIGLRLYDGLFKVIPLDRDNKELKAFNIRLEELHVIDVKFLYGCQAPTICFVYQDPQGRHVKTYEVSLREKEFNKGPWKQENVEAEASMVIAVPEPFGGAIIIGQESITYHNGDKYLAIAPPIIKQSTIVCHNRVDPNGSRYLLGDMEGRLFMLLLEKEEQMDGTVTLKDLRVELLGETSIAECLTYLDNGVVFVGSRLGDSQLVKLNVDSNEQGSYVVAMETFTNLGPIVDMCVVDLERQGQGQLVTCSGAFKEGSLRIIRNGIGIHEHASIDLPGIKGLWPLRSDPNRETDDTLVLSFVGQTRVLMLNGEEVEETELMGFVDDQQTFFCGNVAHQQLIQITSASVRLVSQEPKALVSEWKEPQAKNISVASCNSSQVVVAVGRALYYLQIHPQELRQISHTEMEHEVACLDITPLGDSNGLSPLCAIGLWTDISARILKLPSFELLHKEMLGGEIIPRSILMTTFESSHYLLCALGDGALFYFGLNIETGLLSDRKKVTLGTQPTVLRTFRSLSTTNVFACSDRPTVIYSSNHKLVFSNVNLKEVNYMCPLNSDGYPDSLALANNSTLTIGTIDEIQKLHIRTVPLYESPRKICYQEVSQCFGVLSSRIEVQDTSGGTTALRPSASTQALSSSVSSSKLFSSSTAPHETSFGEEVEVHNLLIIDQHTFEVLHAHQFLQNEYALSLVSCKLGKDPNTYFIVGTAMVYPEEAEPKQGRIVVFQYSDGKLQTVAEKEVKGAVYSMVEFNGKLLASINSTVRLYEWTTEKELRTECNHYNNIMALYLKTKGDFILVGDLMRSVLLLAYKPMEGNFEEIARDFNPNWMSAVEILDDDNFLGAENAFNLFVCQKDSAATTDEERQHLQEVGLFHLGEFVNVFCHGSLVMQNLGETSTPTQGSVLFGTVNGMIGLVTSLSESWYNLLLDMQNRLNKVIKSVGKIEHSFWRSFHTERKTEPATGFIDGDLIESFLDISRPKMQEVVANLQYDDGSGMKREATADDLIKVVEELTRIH
T4 sequence (Q06187 whole entry, the tested form may be a part): as the sequence (Q06187 whole entry, species assumed) above
T4 sequence (Q96SW2 whole entry, the tested form may be a part): as the sequence (Q96SW2 whole entry) above
T4 sequence (Q16531 whole entry partner, the tested form may be a part): as the sequence (Q16531 whole entry partner) above
T3 sequence (Q06187 whole entry, the tested form may be a part): as the sequence (Q06187 whole entry, species assumed) above
T3 sequence (Q96SW2 whole entry, further chain, the tested form may be a part): as the sequence (Q96SW2 whole entry) above
T3 sequence (Q16531 whole entry partner, the tested form may be a part): as the sequence (Q16531 whole entry partner) above

SMILES: CC1=CC(C)=[N+]2C1=Cc1ccc(CCC(=O)NCCCN(C)CCCC(=O)N3CCC[C@@H](n4nc(-c5ccc(Oc6ccccc6)cc5)c5c(N)ncnc54)C3)n1[B-]2(F)F [BTK tracer]
Kd [1]: 155 nM

GSPT1 degradation (result in words) [2]: potent GSPT1 degrader
SMILES: Cc1ccc(NC(=O)NCc2ccc3c(c2)CN(C2CCC(=O)NC2=O)C3=O)cc1Cl (centres unmarked) [CC-885, reference compound]

BTK-nLuc Dmax [3]: 96% | DC50 [4]: 25.9 nM | BTK WB Dmax [5]: 99% | DC50 ([5]; read-out: BTK WB DC50): 0.9 nM | BTK degradation (result in words) ([5]; up to 1000 nM): potently induces BTK degradation
SMILES: Cc1c(NC(=O)c2ccc(C(C)(C)C)cc2)cccc1-c1cn(C)c(=O)c(Nc2ccc(C(=O)N3CCN(CCCCCCNC(=O)CNc4cccc5c4C(=O)N(C4CCC(=O)NC4=O)C5=O)CC3)cc2)n1 (centres unmarked) [DD-03-171, reference compound]

competition with PS-2 induced BTK degradation (BTK ligand) [6]: cannot completely compete out
SMILES: CN1CCN(c2ccc(Nc3nccc(Oc4ccccc4)n3)cc2)CC1 [PS2W]
